Assay results published in publication PMC7181280, “Synthesis, Structure and In Vitro Anti-Trypanosomal Activity of Non-Toxic Arylpyrrole-Based Chalcone Derivatives” (Molecules, 2020).
Where two headings read alike, the source gives them in different places.

Experiments:
[1] = test system: Trypanosoma brucei brucei 427 trypomastigotes; test: In vitro antitrypanosomal assay (resazurin parasite viability); assay type: cell-based; conditions: T. b. brucei 427 strain; for IC50: Trypanosoma brucei
Experimental: (§1) A single concentration (20 µM) cytotoxicity evaluation of all compounds was conducted in duplicates using a human cervix adenocarcinoma (HeLa) cell line, with emetine (EMT) included as a reference drug and cell viability relative to untreated cells assessed using resazurin. […] The anti-trypanosomal activity of prepared compounds against nagana T. b. brucei (the subspecies responsible for African trypanosomiasis in cattle) parasite cultures were determined using the T. b. brucei 427 strain. Pentamidine (PMD), which is an existing drug for the treatment of trypanosomiasis, was included as a positive control drug. The trypanocidal activity of each compound was initially assessed at a fixed concentration of 20 μM, using resazurin as a read-out of cell viability after compound exposure. […] From Table 1, the structural modification was initially performed on the arylpyrrole moiety (ring B) of the chalcones, while keeping the ring A unchanged. […] Introduction of the fluorine, highly electronegative atom, at the para-position (10b) appeared to enhance the activity against T. b. brucei; however, the activity diminished when the fluorine was replaced by chlorine (10c).
Trypanosoma brucei brucei 427 trypomastigotes were cultured in Iscove’s Modified Dulbecco’s medium (IMDM, Lonza, Basel Switzerland) and supplemented with 10% fetal calf serum, HMI-9 supplement, hypoxanthine and penicillin/streptomycin at 37 °C in a 5% CO2 incubator. Serial dilutions of test compounds were incubated with the parasites in 96-well plates for 24 h, and residual parasite viability in the wells determined by adding 20 µL resazurin toxicology reagent (Sigma-Aldrich) and incubating for an additional 24 h. Reduction of resazurin to resorufin by viable parasites was assessed by fluorescence readings (excitation 560 nm, emission 590 nm) in a Spectramax M3 plate reader (Molecular Devices, San Jose, CA, USA). Fluorescence readings were converted to % parasite viability relative to the average readings obtained from untreated control wells. IC50 values were determined by plotting % viability vs. log[compound] and performing non-linear regression using GraphPad Prism (v. 5.02) software.

[2] = In vitro cytotoxicity assay, HeLa cells (resazurin cell viability); assay type: cell-based; conditions: human
Experimental: as §1
HeLa cells (Cellonex, Johannesburg, South Africa) seeded in 96-well plates were incubated with 20 µM test compounds and cell viability assessed with resazurin, as previously described. Fluorescence readings (excitation 560 nm, emission 590 nm) obtained for the individual wells were converted to % cell viability relative to the average readings obtained from untreated control wells. Plots of % cell viability vs. log[compound] were used to determine IC50 values by non-linear regression using GraphPad Prism (v. 5.02).

[3] = 48 h, 24 h compound incubation + 24 h resazurin, na = not active (cell viability ≥50% in preliminary single point assay at 20 μM), read-out: T. b. brucei IC50
[4] = 24 h compound incubation + 24 h resazurin, na = not active (cell viability ≥50% in preliminary single point assay at 20 μM)

Row | IC50 [1, 3] | Structure (SMILES) | viability at 20 µM [2] | also measured
1 | 10.5 µM | Cc1cc(/C=C/C(=O)c2cc(Br)ccc2O)c(C)n1-c1ccc(Br)cc1 [Compound 10d, (E)-1-(5-Bromo-2-hydroxyphenyl)-3-(1-(4-bromophenyl)-2,5-dimethyl-1H-pyrrol-3-yl)prop-2-en-1-one] | > 100% | –
2 | 11.7 µM | Cc1cc(/C=C/C(=O)c2cc(Cl)ccc2O)c(C)n1-c1cccc([N+](=O)[O-])c1 [Compound 19, (E)-1-(5-Chloro-2-hydroxyphenyl)-3-(2,5-dimethyl-1-(3-nitrophenyl)-1H-pyrrol-3-yl)prop-2-en-1-one] | 81.2% | –
3 | – | Cc1cc(/C=C/C(=O)c2cc(Br)ccc2O)c(C)[nH]1 [Compound 10k, (E)-1-(5-Bromo-2-hydroxyphenyl)-3-(2,5-dimethyl-1H-pyrrol-3-yl)prop-2-en-1-one] | > 100% | T. b. brucei IC50 [1, 4]: complete loss of activity
4 | 36.5 µM | Cc1cc(/C=C/C(=O)c2ccc(F)cc2)c(C)n1-c1ccc([N+](=O)[O-])cc1 [Compound 14, (E)-3-(2,5-Dimethyl-1-(4-nitrophenyl)-1H-pyrrol-3-yl)-1-(4-fluorophenyl)prop-2-en-1-one] | 99.4% | melting point: 160 to 164 °C
5 | < 6 µM | Cc1cc(/C=C/C(=O)c2cc(Br)ccc2O)c(C)n1-c1ccc([N+](=O)[O-])cc1 [Compound 10h, (E)-1-(5-Bromo-2-hydroxyphenyl)-3-(2,5-dimethyl-1-(4-nitrophenyl)-1H-pyrrol-3-yl)prop-2-en-1-one] | > 100% | –
6 | 11.4 µM | Cc1cc(/C=C/C(=O)c2cc(Br)ccc2O)c(C)n1-c1ccc(C(F)(F)F)cc1 [Compound 10f, (E)-1-(5-Bromo-2-hydroxyphenyl)-3-(2,5-dimethyl-1-(4-(trifluoromethyl)phenyl)-1H-pyrrol-3-yl)prop-2-en-1-one] | > 100% | –
7 | 4.09 µM | Cc1cc(/C=C/C(=O)c2cc(Br)ccc2O)c(C)n1-c1cccc(C(F)(F)F)c1 [Compound 10e, (E)-1-(5-Bromo-2-hydroxyphenyl)-3-(2,5-dimethyl-1-(3-(trifluoromethyl)phenyl)-1H-pyrrol-3-yl)prop-2-en-1-one] | > 100% | –
8 | 11.5 µM | Cc1cc(/C=C/C(=O)c2cc(Br)ccc2O)c(C)n1C1CCCCC1 [Compound 10l, (E)-1-(5-Bromo-2-hydroxyphenyl)-3-(1-cyclohexyl-2,5-dimethyl-1H-pyrrol-3-yl)prop-2-en-1-one] | 99.2% | –
9 | 9.1 µM | COc1ccc2nc(Cl)c(/C=C/C(=O)c3cc(Br)ccc3O)cc2c1 [Compound 11b] | 99.3% | –
10 | 12.3 µM | COc1ccc(C(=O)/C=C/c2cc(C)n(-c3ccc([N+](=O)[O-])cc3)c2C)cc1 [Compound 15, (E)-3-(2,5-Dimethyl-1-(4-nitrophenyl)-1H-pyrrol-3-yl)-1-(4-methoxyphenyl)prop-2-en-1-one] | 98.9% | melting point: 157 to 158 °C
11 | 10.6 µM | COc1ccc(C(=O)/C=C/c2cc(C)n(-c3ccc([N+](=O)[O-])cc3)c2C)c(OC)c1 [Compound 16, (E)-1-(2,4-Dimethoxyphenyl)-3-(2,5-dimethyl-1-(4-nitrophenyl)-1H-pyrrol-3-yl)prop-2-en-1-one] | > 100% | –
12 | – | CC[C@H]1CN2CCc3cc(OC)c(OC)cc3[C@@H]2C[C@@H]1C[C@H]1NCCc2cc(OC)c(OC)cc21 [EMT, emetine, reference compound] | – | IC50 ([2]; HeLa cells, resazurin, read-out: HeLa cytotoxicity of reference drug (printed in the %Viability column with unit μM)): 0.76 µM
13 | 9.3 µM | Cc1cc(/C=C/C(=O)c2cc(Cl)ccc2O)c(C)n1-c1cccc(C(F)(F)F)c1 [Compound 18, (E)-1-(5-Chloro-2-hydroxyphenyl)-3-(2,5-dimethyl-1-(3-(trifluoromethyl)phenyl)-1H-pyrrol-3-yl)prop-2-en-1-one] | 79.9% | –
14 | – | COc1ccc(-n2c(C)cc(/C=C/C(=O)c3cc(Br)ccc3O)c2C)cc1 [Compound 10j, (E)-1-(5-Bromo-2-hydroxyphenyl)-3-(1-(4-methoxyphenyl)-2,5-dimethyl-1H-pyrrol-3-yl)prop-2-en-1-one] | > 100% | T. b. brucei IC50 [1, 4]: no activity
15 | – | N=C(N)c1ccc(OCCCCCOc2ccc(C(=N)N)cc2)cc1 [PMD, Pentamidine, reference compound] | – | IC50 ([1]; read-out: T. b. brucei IC50 (positive control drug)): 0.00068 µM
16 | 40 µM | Cc1cc(/C=C/C(=O)c2cc(Br)ccc2O)c(C)n1-c1ccc(Cl)cc1 [Compound 10c, (E)-1-(5-Bromo-2-hydroxyphenyl)-3-(1-(4-chlorophenyl)-2,5-dimethyl-1H-pyrrol-3-yl)prop-2-en-1-one] | > 100% | –
17 | < 10 µM | Cc1cc(/C=C/C(=O)c2cc(Br)ccc2O)c(C)n1-c1cccc([N+](=O)[O-])c1 [Compound 10i, (E)-1-(5-bromo-2-hydroxyphenyl)-3-(2,5-dimethyl-1-(3-nitrophenyl)-1H-pyrrol-3-yl)prop-2-en-1-one] | 51.2% | –
18 | – | Cc1cc(/C=C/C(=O)c2ccc([N+](=O)[O-])cc2)c(C)n1-c1ccc([N+](=O)[O-])cc1 [Compound 17, (E)-3-(2,5-Dimethyl-1-(4-nitrophenyl)-1H-pyrrol-3-yl)-1-(4-nitrophenyl)prop-2-en-1-one] | – | viability at 20 µM ([2]; single concentration 20 µM, duplicates, relative to untreated cells, read-out: HeLa %Viability (residual percentage viability)): > 100%; melting point: 175 to 178 °C
19 | 10 µM | Cc1cc(/C=C/C(=O)c2cc(Br)ccc2O)c(C)n1-c1ccccc1C(F)(F)F [Compound 10g, (E)-1-(5-Bromo-2-hydroxyphenyl)-3-(2,5-dimethyl-1-(2-(trifluoromethyl)phenyl)-1H-pyrrol-3-yl)prop-2-en-1-one] | > 100% | –
20 | – | O=C(/C=C/c1c[nH]cn1)c1cc(Br)ccc1O [Compound 11a, (E)-1-(5-Bromo-2-hydroxyphenyl)-3-(1H-imidazol-4-yl)prop-2-en-1-one] | 78.1% | T. b. brucei IC50 [1, 4]: no activity
21 | 44.3 µM | Cc1ccc(C(=O)/C=C/c2cc(C)n(-c3ccc([N+](=O)[O-])cc3)c2C)cc1 [Compound 13, (E)-3-(2,5-Dimethyl-1-(4-nitrophenyl)-1H-pyrrol-3-yl)-1-(p-tolyl)prop-2-en-1-one] | > 100% | melting point: 172 to 173 °C
22 | – | Cc1cc(/C=C/C(=O)c2ccccc2)c(C)n1-c1ccc([N+](=O)[O-])cc1 [Compound 12, (E)-3-(2,5-Dimethyl-1-(4-nitrophenyl)-1H-pyrrol-3-yl)-1-phenylprop-2-en-1-one] | 84.7% | melting point: 169 to 174 °C
23 | 6.9 µM | Cc1cc(/C=C/C(=O)c2cc(Br)ccc2O)c(C)n1-c1ccc(F)cc1 [Compound 10b, (E)-1-(5-Bromo-2-hydroxyphenyl)-3-(1-(4-fluorophenyl)-2,5-dimethyl-1H-pyrrol-3-yl)prop-2-en-1-one] | > 100% | –
24 | 11.5 µM | Cc1cc(/C=C/C(=O)c2cc(Br)ccc2O)c(C)n1-c1ccccc1 [Compound 10a, (E)-1-(5-Bromo-2-hydroxyphenyl)-3-(2,5-dimethyl-1-phenyl-1H-pyrrol-3-yl)prop-2-en-1-one] | > 100% | –
